Legend:
human CD44 3'-UTR = assay: CD44 3'-UTR luciferase reporter assay; type: cell-based; settings: Du145 cells
Experimental: FIGS. 3A-3J show partial suppression of epithelial to mesenchymal transition by miR-141 and CD44 as a direct target of miR-141. FIGS. 3A-3B show qPCR analysis of epithelial to mesenchymal transition markers in bulk (FIG. 3A) or CD44^+ (FIG. 3B) Du145 cells transfected with the miR-141 oligos (30 nM; 48 h). Results were presented as the relative expression levels over the cells transfected with the NC oligos. […] GAPDH was used as control and the relative protein levels after normalizing to GAPDH and NC controls were indicated below each lane. […] Shown below is the actual sequence in the region with the mutated miR-141 binding sequence indicated in grey (below). […] Shown are representative images. […] Du145 cells were co-transfected with NC or miR-141 oligos (30 nM) together with pBabe empty vector or pBabe-CD44 vector. After 48 h, cells were harvested for invasion assays. […]
The human CD44 3′-UTR was amplified from Du145 genomic DNA using primers 5′-[…]-3′ (SEQ ID NO: 2) and 5′-[…]-3′ (SEQ ID NO: 3), as previously described (13). […] The luciferase activities were detected using Duo-luciferase reporter assay system (Promega). Human RAC1, CDC42, CDC42EP3, and ARPC5 3′-UTR luciferase reporter constructs were obtained from SwitchGear Genomics (Menlo Park, Calif.) and luciferase activities were measured per the manufacturer's instructions using LightSwitch luciferase assay kit.

EZH2 = EZH2 mRNA and protein levels; type: cell-based, human
Experimental: FIG. 6A: Putative binding site of miR-141 in EZH2 3′-UTR. […] FIG. 6C is a qPCR analysis of EZH2 mRNA levels in CD44^+ PCa cells. Bars, mean±SD. *P<0.05; **P<0.01. […] Bars, mean±SD. **P<0.01. […] Western blotting was performed in PC3 and Du145 cells transfected with NC (60 nM) or miR-141 (30 or 60 nM) oligos (72 h). Relative protein levels were measured by densitometry and normalized to GAPDH levels (indicated below). […] Du145 cells plated one day before were treated with 1, 2, and 5 μM of DZNep for 96 h and then cells were harvested for invasion assays. **P<0.01. Inset, WB showing reduced EZH2 proteins by DZNep. […] Du145 cells were transfected with 10 nM scramble siRNA (siCon) or EZH2-targeting siRNAs (siEZH2) or siEZH2 plus anti-miR-141 (30 nM). 48 h later, cells were harvested for invasion assays. Bars, mean±SD. **P<0.01. […] Du145 cells were co-transfected with 30 nM NC or miR-141 oligos together with empty vector or pCMV-EZH2 construct. After 48 h, cells were harvested for invasion assay. Bars, mean±SD. **P<0.01.
Total RNA was extracted using microRNA isolation kit (Life Technologies) according to the manufacturer's instructions. microRNA qPCRs were performed using TaqMan microRNA assays (Life Technologies). qPCR data for microRNAs were normalized to RNU48 whereas qPCR data for mRNAs were normalized to GAPDH.
For Boyden Chamber invasion assays, Biocoat Matrigel Invasion Chamber (BD, Franklin Lakes, N.J.) was employed following the manufacturer's instructions. Briefly, 100,000-200,000 of prostate cancer cells after transfection with […]/miR-141 oligos or infection with miR-141 over-expressing lentivirus were seeded into each well. Medium with 20% fetal bovine serum was used in the lower chamber as chemo-attractant. After 20 h, cells were fixed and stained using HEMA stain. Representative images were taken for each membrane and cells were counted. Migration assays were simultaneously performed in control wells using identical protocol with Transwell (Costar; 8 μl PET) without Matrigel. […]

## miR-141: miR-141 mirVana mimics (Life Technologies); microRNA-141 oligonucleotide may have SEQ ID NO: 1; in some experiments over-expressed by lentiviral vectors (UAACACUGUCUGGUAAAGAUGG; listed as RNA, further chemistry not given here) [miR-141 mirVana mimics (Life Technologies); in some experiments over-expressed by lentiviral vectors]
Human CD44 3'-UTR
  luciferase activity, CD44 3'-UTR with mutated miR-141 binding sequence: abrogated the suppressive effect of miR-141
Human CD44 3'-UTR; vs negative control oligos
  luciferase activity, wild-type CD44 3'-UTR reporter: lower
EZH2; miR-141 overexpression in prostate cancer cells
  EZH2 RNA level: significantly reduced
EZH2; miR-141 overexpression, PC3 and Du145, 30 or 60 nM, 72 h
  EZH2 protein level: significantly reduced
